Test results taken from patent US9234025B2, “Extracellular allosteric inhibitor binding domain from a tyrosine kinase receptor” (SANOFI, priority 2009, dated 2016).

How the values were obtained:
PANC02 cells = test: PANC02 proliferation; assay type: cell-based; conditions: 100 nM SSR; 100 ng/ml FGF7 with or without VEGF; FGFR2-IIIb
Description: Cell proliferation was analysed on exponentially growing cells that were starved for 16 hours in 100 μl RPMI 1640 (Invitrogen, 32404-014) with 0.2% FBS (Hyclone, SH30070.03), 2 mM glutamine, MEM non-essential amino-acid 1× (Gibco, 11140-035), MEM sodium pyruvate 1× (Gibco, 11360-039) and seeded at 4,000 cells/well in 96-well microplates. After exposure to mitogens and/or SSR for 72 hours, cell proliferation was assessed with the use of the CellTiter 96 AQueous One Solution Cell Proliferation Assay (Promega, Madison, Wis., USA) according to manufacturer's instructions. Cell migration was assessed by a modified Boyden chamber assay, by using 24-well inserts containing 8 μm pore size transwell permeable supports with a polycarbonate membrane (Costar, Corning Inc.). Exponentially growing cells were starved in 0.2% FBS containing medium for 16 hours and resuspended at 5×10^5 cells/ml in the same low serum medium. 100 μl of the cell suspension were seeded in the upper chamber, while chemoattractants and/or SSR were placed in the lower chamber. 10% FBS containing medium was used a positive control. After 6 hours incubation at 37° C., cells on the upper side of the membrane were scraped using a cotton swab, while migrated cells on the lower surface were fixed with 4% formaldehyde and nuclei stained with DAPI for quantification.

B9-FGFR3WT cell line = test: B9 myeloma cell proliferation, FGFR3WT; assay type: cell-based; conditions: 0.1 μM SSR; FGF1 25 ng/ml
Description: Cell proliferation was analysed on exponentially growing cells that were starved for 16 hours in IMDM (Invitrogen, 31980048), 0.2% FBS, 2 mM glutamine containing medium and seeded at 4,000 cells/well in 96-well microplates. After exposure to mitogens and/or SSR for 72 hours, cell proliferation was assessed with the use of the CellTiter 96 AQueous One Solution Cell Proliferation Assay (Promega, Madison, Wis., USA) according to manufacturer's instructions.
For studying SSR effect on FGFR3, the proliferation of B9-myeloma cells, expressing either FGFR3WT or FGFR3TD (a constitutively activated FGFR3 variant induced by the K650E mutation, even in the absence of any ligand; Truedel et al; blood 2006), was assayed by stimulation with FGF1 (25 ng/ml).

HUVEC = HUVEC in vitro angiogenesis; assay type: cell-based, human; conditions: low nanomolar range
Description: Collagen/matrigel gels are prepared by distributing in each well of a chamberslide (Biocoat Cellware collagen, Type I, 8-well culturesides: Becton dickinson 354630), 160 μl of 1/6 diluted matrigel (Growth factor reduced Matrigel: Becton dickinson 356230) in collagen I (rat Tail collagene, type I: Becton dickinson 354236). Polymerisation occurs at 37° C. for 1 h. Then, 15.10^3 HUVEC are added per well in 400 μl EBM medium (Clonetics C3121)+2% FCS+hEGF 10 μg/ml. Endothelial cells are stimulated with 10 ng/ml of FGF2 (R&D, 133-FB-025), FGF4 (R&D, 235-F4-025) or FGF19 (R&D, 969-FG-025) for 24 h at 37° C. in a CO2 chamber. Then, total length of pseudotubules is quantified using a bioimaging system (Imagenia Biocom, Courtaboeuf, France).

FGFR2^WT = target: T1, FGFR2^WT (Homo sapiens, UniProt P21802); test: FGF2-induced ERK1/2 phosphorylation in HEK293 cells, FGFR2 WT; assay type: cell-based; conditions: stable HEK293 FGFR2^WT cells; FGF2 0.5 ng/ml 5 min; average±sem, three experiments; read-out: IC50 value, inhibition of FGF2 induced ERK1/2 phosphorylation
T1 construct: expressed in transfected cells
Description: HEK293 cells were either transiently of stably transfected (using FuGENE 6, Roche) with hFGFR2IIIca or hFGFR2IIIca-Y328D cloned in pcDNA3 (Invitrogen). Stably transfected cells were grown in G418 (400 μg/ml) containing medium. Before stimulation, the cells were starved overnight in DMEM (0% serum), and pre-incubated with […] at the required concentration. The cells were subsequently stimulated with FGF2 (concentration between 0.5-10 ng/ml) for 5 min at 37° C. with or without SSR or SU5402 at 1 μM. After washing with ice-cold phosphate-buffered saline containing phosphatase inhibitors (Roche), cells were lysed in RIPA buffer (Tris 30 mM HCl pH 7.5, 150 mM NaCl, 1 mM EDTA, 1% triton-X, 0.5% w/v deoxycholate, containing phophatase and protease inhibitors as described by the manufacturer (Roche)). Cell lysates were centrifuged at 12,000 g for 10 min, and the supernatants were collected. Proteins were separated on Novex polyacrylamide gels (Invitrogen, Carlsbad, Calif.) and subsequently transferred onto Hybond ECL nitrocellulose membranes (Amersham Pharmacia). Following incubation with 5% non-fat milk powder in PBS, the membranes were incubated overnight at 4° C. with the following antibodies: phospho-ERK1/2 (CST:9101), phospho-FRS2 (CST:3861), phospho-PLCγ (CST:2821) and FGFR2 (F0300, Sigma).

FGFR2^∂23 = target: T2, FGFR2^∂23 (Homo sapiens, UniProt P21802); test: isothermal titration calorimetry (ITC), FGFR2; assay type: binding
T2 construct: FGFR2^∂23 (consisting of domain D2 and 3); made in house
Description: All calorimetric experiments were performed at 30° C. with a VP-ITC titration calorimeter (MicroCal Inc., Northampton, Mass.) as previously described^45. Titrations involved the addition of 10 μL aliquots of 1.25 mM SSR via a rotating stirrer-syringe to the solution cell containing 1.407 mL of the 10-20 μM interacting protein (i.e. FGFR2^∂123, FGFR2^∂23 and its described mutants and subdomains, FGFR3^∂123, FGF1, FGF2 and Follistatin (as negative control) at 4 min intervals. A constant stirring speed of 300 rpm was maintained and data were fitted to the standard noninteracting one site model supplied by MicroCal, with n fixed as 1.0. All measurements were performed in 10 mM HEPES pH7.2, 150 mM NaCl, and proteins were purified as previously described (Pellegrini et al., 2000). Mutagenesis was performed using the ‘site directed mutagenesis kit’ (Stratagene).

T1 sequence (P21802 22-821): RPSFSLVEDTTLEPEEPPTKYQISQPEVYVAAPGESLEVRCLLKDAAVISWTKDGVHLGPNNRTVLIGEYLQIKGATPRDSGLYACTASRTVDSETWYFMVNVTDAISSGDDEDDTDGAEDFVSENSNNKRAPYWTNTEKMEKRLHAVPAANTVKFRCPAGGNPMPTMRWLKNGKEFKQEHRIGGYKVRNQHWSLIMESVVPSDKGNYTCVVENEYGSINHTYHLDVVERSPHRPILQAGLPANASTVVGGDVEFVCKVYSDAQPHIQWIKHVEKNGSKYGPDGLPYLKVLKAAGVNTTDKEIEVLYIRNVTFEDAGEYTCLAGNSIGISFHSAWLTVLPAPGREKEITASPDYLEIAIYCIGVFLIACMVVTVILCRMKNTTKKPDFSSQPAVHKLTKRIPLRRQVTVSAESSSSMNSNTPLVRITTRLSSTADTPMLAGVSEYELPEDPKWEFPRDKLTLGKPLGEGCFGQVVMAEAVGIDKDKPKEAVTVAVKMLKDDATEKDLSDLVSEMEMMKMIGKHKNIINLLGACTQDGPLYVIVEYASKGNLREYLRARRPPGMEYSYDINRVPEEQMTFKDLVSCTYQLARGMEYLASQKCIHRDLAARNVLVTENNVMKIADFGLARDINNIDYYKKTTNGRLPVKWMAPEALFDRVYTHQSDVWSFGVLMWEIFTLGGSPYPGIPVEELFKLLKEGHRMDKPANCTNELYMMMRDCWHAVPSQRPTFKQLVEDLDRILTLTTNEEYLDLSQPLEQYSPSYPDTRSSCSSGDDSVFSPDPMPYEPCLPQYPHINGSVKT
T2 sequence (P21802 148-366 limits assumed): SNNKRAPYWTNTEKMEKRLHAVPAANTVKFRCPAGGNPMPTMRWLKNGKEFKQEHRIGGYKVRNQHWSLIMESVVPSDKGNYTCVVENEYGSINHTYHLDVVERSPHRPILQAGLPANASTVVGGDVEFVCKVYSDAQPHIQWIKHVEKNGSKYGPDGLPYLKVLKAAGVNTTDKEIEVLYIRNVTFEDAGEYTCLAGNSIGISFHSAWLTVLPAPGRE

`COc1c(C)c(C(=O)c2ccc(N)c(C(=O)[O-])c2)n2ccccc12.[Na+]` [SSR] was tested, and the “FGF7-induced PANC02 proliferation” value (PANC02 cells) was “blocked”, the “FGF1-induced proliferation of B9-FGFR3WT cells” value (B9-FGFR3WT cell line) was “inhibited” and the “FGF2-induced HUVEC in vitro angiogenesis” value (HUVEC) was “blocks FGF2-induced HUVEC angiogenesis”. The IC50 (FGFR2^WT) was 28 ± 12 nM and the “binding to FGFR2” value (FGFR2^∂23) was “bound”.
